From US11492348B2, “Tri-substituted aryl and heteroaryl derivatives as modulators of PI3-kinase and autophagy pathways” (Neuropore Therapies, Inc., priority 2018, dated 2022)

Molecular target: PI3Kα (Homo sapiens (Human), UniProt P42336)
Experiment: Inhibition of PI3Kα (ADP-Glo kinase activity assay, ATP to ADP conversion)
Type: biochemical
Conditions: 25 μM PIP2:PS, 60 μM ATP, 30 min reaction, luminescence
Experimental: Quantification of ATP to ADP conversion as a measure of PI3Kα activity. Active PI3Kα (Life Technologies), in the presence or absence of PI3Kα inhibitor, was reacted with PIP2:PS (Life Technologies), a substrate specifically optimized for use with Class I PI3 kinases, and ultrapure ATP (Promega). The conversion of ATP to ADP by PI3Kα was measured as luminescence signal via Promega ADP-Glo kinase activity assay. Assay was validated using published PI3Kα inhibitors LY294002, PI-103, BYL719, GDC0198 and also DMSO vehicle control.
Compounds were prepared at 100× final concentration as a 12-point, 1:3 serial-dilution in DMSO series, with DMSO control as 12th point. Compound was then diluted in (25 mM HEPES pH 7.5, 1 mM EGTA, 0.3% CHAPS) prior to addition to PI3Kα. Active PI3Kα diluted to 0.24 ng/μL (1.1 nM) in (50 mM HEPES pH 7.5, 6 mM MgCl2, 1 mM EGTA, 200 mM NaCl, 0.03% CHAPS, 8 mM DTT) was incubated with compound for 0 hr and 3 hr prior to the start of the reaction. 25 μM PIP2:PS and 60 μM ATP were diluted from stock in (25 mM HEPES pH 7.5, 1 mM EGTA, 0.3% CHAPS) and added to initiate the PI3Kα reaction. Reaction time was 30 minutes. ATP to ADP conversion was measured in Luminescence Counts on DTX880 Plate Reader (Beckman Coulter). Compound IC50s were reported using GraphPad Prism software. Analytical method was non-linear regression, 4-parameter curve fit with bottom fit to validated PI3Kα inhibitor reference controls and no top fit (floating top).

PI3Kα, sequence (P42336 whole entry): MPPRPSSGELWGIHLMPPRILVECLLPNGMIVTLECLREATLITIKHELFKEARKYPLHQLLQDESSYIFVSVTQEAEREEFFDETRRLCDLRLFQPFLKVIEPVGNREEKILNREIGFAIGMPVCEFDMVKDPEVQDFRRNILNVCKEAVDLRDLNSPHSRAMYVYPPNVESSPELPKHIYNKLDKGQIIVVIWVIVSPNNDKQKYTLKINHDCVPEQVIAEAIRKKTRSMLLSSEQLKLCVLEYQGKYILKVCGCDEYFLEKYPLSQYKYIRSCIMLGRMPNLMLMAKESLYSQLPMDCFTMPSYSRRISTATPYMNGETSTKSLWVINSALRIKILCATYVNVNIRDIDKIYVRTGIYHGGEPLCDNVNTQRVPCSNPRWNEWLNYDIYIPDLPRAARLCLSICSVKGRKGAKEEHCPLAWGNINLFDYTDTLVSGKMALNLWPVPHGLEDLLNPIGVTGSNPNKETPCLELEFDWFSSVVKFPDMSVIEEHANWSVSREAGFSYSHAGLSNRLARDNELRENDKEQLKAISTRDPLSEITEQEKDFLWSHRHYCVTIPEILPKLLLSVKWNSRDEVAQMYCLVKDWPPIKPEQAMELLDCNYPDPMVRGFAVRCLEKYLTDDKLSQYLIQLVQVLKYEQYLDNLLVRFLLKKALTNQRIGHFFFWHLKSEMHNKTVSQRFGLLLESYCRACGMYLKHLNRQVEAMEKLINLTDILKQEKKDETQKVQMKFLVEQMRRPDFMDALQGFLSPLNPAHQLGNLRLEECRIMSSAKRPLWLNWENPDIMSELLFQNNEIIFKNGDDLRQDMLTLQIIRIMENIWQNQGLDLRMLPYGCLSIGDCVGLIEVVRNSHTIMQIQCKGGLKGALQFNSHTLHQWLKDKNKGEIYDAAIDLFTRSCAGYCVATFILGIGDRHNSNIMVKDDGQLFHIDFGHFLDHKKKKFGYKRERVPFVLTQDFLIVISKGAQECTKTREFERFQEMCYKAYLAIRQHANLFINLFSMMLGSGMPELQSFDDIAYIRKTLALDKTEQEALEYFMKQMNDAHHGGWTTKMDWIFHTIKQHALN
PI3Kα, sequence (P27986 whole entry partner): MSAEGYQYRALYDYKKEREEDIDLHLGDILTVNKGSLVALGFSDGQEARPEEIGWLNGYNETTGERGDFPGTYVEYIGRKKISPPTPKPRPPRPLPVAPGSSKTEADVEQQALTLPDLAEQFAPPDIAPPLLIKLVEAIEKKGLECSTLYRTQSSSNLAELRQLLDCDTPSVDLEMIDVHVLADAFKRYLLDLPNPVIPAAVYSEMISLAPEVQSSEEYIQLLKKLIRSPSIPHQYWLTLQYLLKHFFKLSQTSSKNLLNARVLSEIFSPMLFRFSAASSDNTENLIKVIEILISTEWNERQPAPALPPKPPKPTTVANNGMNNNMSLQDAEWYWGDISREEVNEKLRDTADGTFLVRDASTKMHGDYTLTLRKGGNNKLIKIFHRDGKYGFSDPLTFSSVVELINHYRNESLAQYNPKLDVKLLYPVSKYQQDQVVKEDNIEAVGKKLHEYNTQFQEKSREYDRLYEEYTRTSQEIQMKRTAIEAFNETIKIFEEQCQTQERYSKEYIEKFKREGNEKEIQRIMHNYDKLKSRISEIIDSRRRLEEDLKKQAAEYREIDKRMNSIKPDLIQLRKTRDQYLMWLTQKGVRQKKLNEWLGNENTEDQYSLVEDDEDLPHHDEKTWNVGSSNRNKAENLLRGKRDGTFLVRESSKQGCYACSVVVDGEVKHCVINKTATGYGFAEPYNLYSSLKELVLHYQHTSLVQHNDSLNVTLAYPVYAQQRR

Row | Structure (SMILES) | PI3Ka IC50 [nM] | IC50 (read-out: PI3Ka IC50) [nM]
1 | Nc1ncc(-c2cc(C(=O)C3CCOC3)cc(N3CCOCC3)n2)cn1 (centres unmarked) [Compound 149, (2-(2-aminopyrimidin-5-yl)-6-morpholinopyridin-4-yl)(tetrahydrofuran-3-yl)methanone] | 14 | –
2 | Nc1ccc(-c2cc(N3CCOCC3)cc(S(=O)(=O)[C@@H]3CCOC3)c2)c(C(F)(F)F)n1 [Compound 105, (R)-5-(3-morpholino-5-((tetrahydrofuran-3-yl)sulfonyl)phenyl)-6-(trifluoromethyl)pyridin-2-amine] | 1700 | –
3 | CCNC(=O)Nc1ccc(-c2cc(N3CCOCC3)cc(S(=O)(=O)Cc3ccc(F)cc3)c2)cc1OC [Compound 40, 1-ethyl-3-(3′-((4-fluorobenzyl)sulfonyl)-3-methoxy-5′-morpholino-[1,1′-biphenyl]-4-yl)urea] | 6500 | –
4 | Nc1ncc(-c2cc(S(=O)(=O)c3ccccc3)cc(N3CC4CCC(C3)O4)n2)cn1 [Compound 151, 5-(6-(8-oxa-3-azabicyclo[3.2.1]octan-3-yl)-4-(phenylsulfonyl)pyridin-2-yl)pyrimidin-2-amine] | 830 | –
5 | Cc1nc(N)ncc1-c1cc(N2CCOCC2)cc(S(=O)(=O)[C@@H]2CCOC2)c1 [Compound 121, (R)-4-methyl-5-(3-morpholino-5-((tetrahydrofuran-3-yl)sulfonyl)phenyl)pyrimidin-2-amine] | 840 | –
6 | Nc1ncc(-c2cc(N3CCOCC3)cc(S(=O)(=O)c3ccccc3)c2)c(C(F)(F)F)n1 [Compound 3, 5-(3-morpholino-5-(phenylsulfonyl)phenyl)-4-(trifluoromethyl)pyrimidin-2-amine] | 2000 | –
7 | CC(C)(C)OC(=O)N1CCC(N2CC(S(=O)(=O)c3cc(-c4cnc(N)nc4)cc(N4CCOCC4)c3)C2)CC1 [Compound 67, tert-butyl 4-(3-((3-(2-aminopyrimidin-5-yl)-5-morpholinophenyl)sulfonyl)azetidin-1-yl)piperidine-1-carboxylate] | 800 | –
8 | CC1CN(c2cc(S(=O)(=O)c3ccccc3)cc(-c3cnc(N)nc3)n2)CC(C)O1 (centres unmarked) [Compound 150, 5-(6-(2,6-dimethylmorpholino)-4-(phenylsulfonyl)pyridin-2-yl)pyrimidin-2-amine] | 450 | –
9 | COc1nc(N)ccc1-c1cc(N2CCOCC2)cc(S(=O)(=O)Cc2ccc(F)cc2)c1 [Compound 44, 5-(3-((4-fluorobenzyl)sulfonyl)-5-morpholinophenyl)-6-methoxypyridin-2-amine] | 13000 | –
10 | Nc1cc(C(F)(F)F)c(-c2cc(N3CCOCC3)cc(S(=O)(=O)c3ccccc3)c2)cn1 [Compound 6, 5-(3-morpholino-5-(phenylsulfonyl)phenyl)-4-(trifluoromethyl)pyridin-2-amine] | 3800 | –
11 | Nc1ncc(-c2cc(N3CCOCC3)cc(S(=O)(=O)c3ccc4ccccc4c3)c2)cn1 [Compound 9, 5-(3-morpholino-5-(naphthalen-2-ylsulfonyl)phenyl)pyrimidin-2-amine] | 1500 | –
12 | Nc1ccc(-c2cc(N3CCOCC3)cc(S(=O)(=O)Cc3ccc(F)cc3F)c2)nc1 [Compound 98, -(3-((2,4-difluorobenzyl)sulfonyl)-5-morpholinophenyl)pyridin-3-amine] | 12000 | –
13 | CNc1ncc(-c2cc(N3CCOCC3)cc(S(=O)(=O)c3ccccc3)c2)cn1 [Compound 16, N-methyl-5-(3-morpholino-5-(phenylsulfonyl)phenyl)pyrimidin-2-amine] | 1500 | –
14 | O=S(=O)(c1ccccc1)c1cc(-c2cnc(NC3CC3)nc2)nc(N2CCOCC2)c1 [Compound 146, N-cyclopropyl-5-(6-morpholino-4-(phenylsulfonyl)pyridin-2-yl)pyrimidin-2-amine] | 370 | –
15 | Nc1ncc(-c2cc(S(=O)(=O)[C@H]3CCOC3)cc(N3CCOCC3)n2)cn1 [Compound 142a, (S)-5-(6-morpholino-4-((tetrahydrofuran-3-yl)sulfonyl)pyridin-2-yl)pyrimidin-2-amine] | 5.7 | –
16 | Nc1ncc(-c2cc(N3CCOCC3)cc(S(=O)(=O)C3CN(Cc4ccc(F)cc4)C3)c2)cn1 [Compound 80, 5-(3-((1-(4-fluorobenzyl)azetidin-3-yl)sulfonyl)-5-morpholinophenyl)pyrimidin-2-amine] | 660 | –

Row | Structure (SMILES) | PI3Ka IC50 [nM] | IC50 (read-out: PI3Ka IC50) [nM]
17 | Nc1ncc(-c2cc(N3CCOCC3)cc(S(=O)(=O)C3CNC3)c2)cn1 [Compound 61, 5-(3-(azetidin-3-ylsulfonyl)-5-morpholinophenyl)pyrimidin-2-amine] | 500 | –
18 | Nc1ncc(-c2cc(N3CCOCC3)cc(S(=O)(=O)C3CN(C4CCOCC4)C3)c2)cn1 [Compound 66, 5-(3-morpholino-5-((1-(tetrahydro-2H-pyran-4-yl)azetidin-3-yl)sulfonyl)phenyl)pyrimidin-2-amine] | 1300 | –
19 | CN(C)c1ncc(-c2cc(N3CCOCC3)cc(S(=O)(=O)c3ccccc3)c2)cn1 [Compound 4, N,N-dimethyl-5-(3-morpholino-5-(phenylsulfonyl)phenyl)pyrimidin-2-amine] | 11000 | –
20 | CC(C)(C)OC(=O)N1CC(S(=O)(=O)c2cc(-c3cnc(N)cn3)cc(N3CCOCC3)c2)C1 [Compound 69, tert-butyl 3-((3-(5-aminopyrazin-2-yl)-5-morpholinophenyl)sulfonyl)azetidine-1-carboxylate] | 540 | –
21 | Nc1cnc(-c2cc(N3CCOCC3)cc(S(=O)(=O)Cc3ccccc3)c2)cn1 [Compound 73, 5-(3-(benzylsulfonyl)-5-morpholinophenyl)pyrazin-2-amine] | 1500 | –
22 | CC(C)(O)CNc1ccc(CS(=O)(=O)c2cc(-c3cnc(N)nc3)cc(N3CCOCC3)c2)cc1 [Compound 84, 1-((4-(((3-(2-aminopyrimidin-5-yl)-5-morpholinophenyl)sulfonyl)methyl)phenyl)amino)-2-methylpropan-2-ol] | 600 | –
23 | Nc1ncc(-c2cc(N3CCOCC3)cc(S(=O)(=O)Cc3ccccc3)c2)c(C(F)(F)F)n1 [Compound 33, 5-(3-(benzylsulfonyl)-5-morpholinophenyl)-4-(trifluoromethyl)pyrimidin-2-amine] | 980 | –
24 | Nc1ncc(-c2cc(N3CCOCC3)cc(S(=O)(=O)c3cccc(C(F)(F)F)c3)c2)cn1 [Compound 7, 5-(3-morpholino-5-((3-(trifluoromethyl)phenyl)sulfonyl)phenyl) pyrimidin-2-amine] | 1800 | –
25 | CNc1ncc(-c2cc(N3CCOCC3)cc(S(=O)(=O)Cc3ccccc3)c2)cn1 [Compound 31, 5-(3-(benzylsulfonyl)-5-morpholinophenyl)-N-methylpyrimidin-2-amine] | 660 | –
26 | CC(=O)Nc1ncc(-c2cc(S(=O)(=O)c3ccccc3)cc(N3CCOCC3)n2)cn1 [Compound 145, N-(5-(6-morpholino-4-(phenylsulfonyl)pyridin-2-yl)pyrimidin-2-yl)acetamide] | 390 | –
27 | CC(C)(C)OC(=O)N1CCN(c2cc(-c3cnc(N)nc3)cc(S(=O)(=O)c3ccccc3)c2)CC1 [Compound 24, tert-butyl 4-(3-(2-aminopyrimidin-5-yl)-5-(phenylsulfonyl)phenyl)piperazine-1-carboxylate] | 21000 | –
28 | Nc1ncc(-c2cc(S(=O)(=O)C3CCOc4ccccc43)cc(N3CCOCC3)n2)cn1 (single isomer, unassigned; (+)) [(+) 143, 5-(4-(chroman-4-ylsulfonyl)-6-morpholinopyridin-2-yl)pyrimidin-2-amine] | – | 4.5
29 | CC(C)N1CCC(S(=O)(=O)c2cc(-c3cnc(N)nc3)cc(N3CCOCC3)c2)C1.Cl (centres unmarked) [Compound 89, 5-(3-((1-isopropylpyrrolidin-3-yl)sulfonyl)-5-morpholinophenyl)pyrimidin-2-amine hydrochloride] | 2500 | –
30 | C[C@@H]1CC(S(=O)(=O)c2cc(-c3cnc(N)nc3)cc(N3CCOCC3)c2)C[C@H](C)O1 (stereo partly drawn) [Compound 85, 5-(3-(((2R,6S)-2,6-dimethyltetrahydro-2H-pyran-4-yl)sulfonyl)-5-morpholinophenyl)pyrimidin-2-amine] | 1000 | –
31 | Nc1ncc(-c2cc(N3CCOCC3)cc(S(=O)(=O)c3ccc(N4CCOCC4)cc3)c2)cn1 [Compound 36, 5-(3-morpholino-5-((4-morpholinophenyl)sulfonyl)phenyl)pyrimidin-2-amine] | 1100 | –
32 | COc1cncc(-c2cc(N3CCOCC3)cc(S(=O)(=O)Cc3ccc(F)cc3)c2)c1 [Compound 55, 4-(3-((4-fluorobenzyl)sulfonyl)-5-(5-methoxypyridin-3-yl)phenyl)morpholine] | 12000 | –
